One series deals with T1, human active MMP-2 (Homo sapiens, UniProt P08253).
T1 sequence (P08253 110-660): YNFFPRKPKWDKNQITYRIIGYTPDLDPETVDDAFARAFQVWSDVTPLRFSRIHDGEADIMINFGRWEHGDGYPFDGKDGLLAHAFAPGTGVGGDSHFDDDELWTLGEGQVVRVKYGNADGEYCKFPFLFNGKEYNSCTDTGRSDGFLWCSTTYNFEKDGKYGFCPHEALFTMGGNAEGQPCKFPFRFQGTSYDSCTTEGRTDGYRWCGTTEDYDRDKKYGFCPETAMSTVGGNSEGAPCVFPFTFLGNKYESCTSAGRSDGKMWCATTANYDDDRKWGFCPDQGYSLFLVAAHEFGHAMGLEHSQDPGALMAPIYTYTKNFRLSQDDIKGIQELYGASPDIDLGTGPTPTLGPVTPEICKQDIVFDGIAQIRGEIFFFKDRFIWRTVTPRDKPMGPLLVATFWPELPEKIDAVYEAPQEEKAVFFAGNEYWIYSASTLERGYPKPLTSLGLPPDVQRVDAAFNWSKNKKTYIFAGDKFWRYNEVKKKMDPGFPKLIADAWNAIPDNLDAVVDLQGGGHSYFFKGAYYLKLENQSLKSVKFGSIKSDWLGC
Briefly: fluorometric in vitro MMP inhibition assay, MMP-2. It counts as biochemical. Here is the method: (§1) The MMP inhibition potencies of the barbituric acid derivatives 5a, 5b, 6, 9 and 10 were measured in fluorometric in vitro inhibition assays as described previously.
(§2) An aliquot of substrate (10 μL of a 50 μM solution) was then added to 90 μL of the preincubated MMP/inhibitor mixture, and the fluorescence was determined at 37 °C by following product release with time. The fluorescence changes were monitored using a Fusion Universal Microplate Analyzer (Packard Bioscience, Boston, MA, USA) with excitation and emission wavelengths set to 330 and 390 nm, respectively. Reaction rates were measured from the initial 10 min of the reaction profile where product release was linear with time and plotted as a function of inhibitor dose. From the resulting inhibition curves, the IC50 values for each inhibitor were calculated by non-linear regression analysis, performed using the Grace 5.1.8 software (Linux).

A further series addresses human active MMP-9 (Homo sapiens, UniProt P14780). Briefly: fluorometric in vitro MMP inhibition assay, MMP-9. It counts as biochemical. The procedure:
as §1, §2

The target of the next series is human active MMP-8 (Homo sapiens, UniProt P22894). Briefly: fluorometric in vitro MMP inhibition assay, MMP-8. The series is classed as biochemical. The procedure:
as §1, §2

In a further series the target is human active MMP-13 (Homo sapiens, UniProt P45452). Briefly: fluorometric in vitro MMP inhibition assay, MMP-13. It counts as biochemical. Here is the method: as §1, §2
The target in the next series is human active MMP-14 (Homo sapiens, UniProt P50281). Briefly: fluorometric in vitro MMP inhibition assay, MMP-14. It counts as biochemical. Here is the method:
as §1, §2

Series [1] can be described thus: calculated logP/logD (ACD/Chemsketch ACD/Labs 6.00). The conditions noted are these: relative to 12.
Setting [2] is: IC50 MMP-2, mean ± SD of three assays.
[3] abbreviates: IC50 MMP-9, mean ± SD of three assays.
Setting [4] is: IC50 MMP-2 (range given jointly for MMP-2 and -9), summary of Table 1.
[5] abbreviates: IC50 MMP-9 (range given jointly for MMP-2 and -9), summary of Table 1.

Chain of human active MMP-9 (P14780 107-707 limits assumed): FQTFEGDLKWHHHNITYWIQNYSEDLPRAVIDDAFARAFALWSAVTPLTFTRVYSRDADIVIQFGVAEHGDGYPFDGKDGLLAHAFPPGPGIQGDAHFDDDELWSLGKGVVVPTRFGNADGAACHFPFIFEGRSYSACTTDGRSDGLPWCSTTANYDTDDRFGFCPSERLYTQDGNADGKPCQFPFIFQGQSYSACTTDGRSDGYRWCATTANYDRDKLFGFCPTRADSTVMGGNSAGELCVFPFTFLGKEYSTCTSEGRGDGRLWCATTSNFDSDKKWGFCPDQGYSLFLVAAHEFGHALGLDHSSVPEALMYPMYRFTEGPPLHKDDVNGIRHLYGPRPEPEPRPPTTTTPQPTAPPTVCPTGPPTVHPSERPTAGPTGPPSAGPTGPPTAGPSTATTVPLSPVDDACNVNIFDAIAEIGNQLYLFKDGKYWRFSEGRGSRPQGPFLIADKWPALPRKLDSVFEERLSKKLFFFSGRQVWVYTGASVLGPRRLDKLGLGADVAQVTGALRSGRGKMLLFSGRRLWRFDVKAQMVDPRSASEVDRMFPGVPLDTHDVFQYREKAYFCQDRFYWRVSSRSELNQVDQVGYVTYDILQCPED
Chain of human active MMP-8 (P22894 101-467): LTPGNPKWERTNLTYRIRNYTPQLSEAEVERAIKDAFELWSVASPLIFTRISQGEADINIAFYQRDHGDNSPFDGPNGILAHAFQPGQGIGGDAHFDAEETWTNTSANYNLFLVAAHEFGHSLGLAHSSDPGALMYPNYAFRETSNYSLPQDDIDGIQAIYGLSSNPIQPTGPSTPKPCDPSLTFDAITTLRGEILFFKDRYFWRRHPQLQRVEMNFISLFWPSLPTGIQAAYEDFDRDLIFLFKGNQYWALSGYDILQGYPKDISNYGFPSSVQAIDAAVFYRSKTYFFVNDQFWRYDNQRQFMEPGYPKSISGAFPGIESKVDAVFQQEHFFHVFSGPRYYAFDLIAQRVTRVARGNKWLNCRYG

A word on the IC50: it is the concentration needed to halve the response being measured. Low values mean higher potency, high ones lower potency. A word on the melting point: it is the temperature, or range, at which the solid turns liquid. Regarding `O=C1NC(=O)C(c2ccc(I)cc2)(N2CCN(CCO)CC2)C(=O)N1` [5a, 5-[4-(2-Hydroxyethyl)piperazin-1-yl]-5-(4-iodophenyl)pryrimidine-2,4,6-trione], the melting point fell in the range of 168 to 172 °C. The IC50 against human active MMP-2 (setting [2]) is 10 ± 3 nM. At human active MMP-9 (setting [3]), this molecule yielded an IC50 of 550 ± 180 nM.
In turn, `O=C(O)CCN1CCN(C2(c3ccc(I)cc3)C(=O)NC(=O)NC2=O)CC1` [5b, 5-[4-(2-Carboxyethyl)piperazin-1-yl]-5-(4-iodophenyl)pyrimidine-2,4,6-trione] came in with a melting point of 139 to 142 °C. This molecule returned an IC50 on human active MMP-2 (setting [4]) of 670 to 1600 nM. On human active MMP-2 (setting [2]), this molecule registered an IC50 of 1200 ± 340 nM. In addition, the IC50 on human active MMP-9 (setting [5]) was in the range of 670 to 1600 nM. At human active MMP-9 (setting [3]), this molecule came in with an IC50 of 1600 ± 600 nM.
Regarding `O=C1NC(=O)C(c2ccc(O)c(I)c2)(N2CCN(CCO)CC2)C(=O)N1` [compound 6, 5-(4-Hydroxy-3-iodophenyl)-5-[4-(2-hydroxyethyl)piperazin-1-yl]pryrimidine-2,4,6-trione], the melting point is 168 to 170 °C (dec.). This molecule came in with an IC50 at human active MMP-2 (setting [4]) of 670 to 1600 nM. At human active MMP-2 (setting [2]), this molecule registered an IC50 of 670 ± 210 nM. For the same molecule, the IC50 against human active MMP-9 (setting [5]) fell in the range of 670 to 1600 nM. Also, the IC50 at human active MMP-9 (setting [3]) came out at 1300 ± 320 nM.
For the molecule `O=C(O)CCN1CCN(C2(c3ccc(Oc4ccc(I)cc4)cc3)C(=O)NC(=O)NC2=O)CC1` [compound 9, 5-[4-(2-Carboxyethyl)piperazin-1-yl]-5-[4-(4-iodophenoxy)phenyl]pyrimidine-2,4,6-trione], the melting point was 236 to 242 °C (dec.). This molecule also came in with an IC50 against human active MMP-2 (setting [2]) of 29 ± 2 nM. The molecule also showed an IC50 against human active MMP-8 of 1170 ± 80 nM. This molecule came in with an IC50 at human active MMP-9 (setting [3]) of 1.3 ± 0.2 nM. Further, on human active MMP-13, the IC50 amounted to 362 ± 24 nM. At human active MMP-14, the IC50 is 49 nM. The “increased water solubility compared to 12, inferred from clogD shift” value in series [1] is “approximately 400 fold”.
Molecule `O=C1NC(=O)C(c2ccc(Oc3ccc(I)cc3)cc2)(N2CCN(CCOCCOCCOCCF)CC2)C(=O)N1` [compound 10, 5-(4-(2-(2-(2-(2-Fluoroethoxy)ethoxy)ethoxy)ethyl)piperazin-1-yl)-5-(4-(4-iodophenoxy)phenyl)-pyrimidine-2,4,6-trione] came in with a melting point of 176 to 177 °C. Also, half-maximal inhibition at human active MMP-2 (setting [2]) (IC50) required 23 ± 5 nM. Moreover, 146 ± 48 nM corresponded to half-maximal inhibition at human active MMP-8 (IC50). On human active MMP-9 (setting [3]), this molecule showed an IC50 of 17 ± 5 nM. On human active MMP-13, this molecule returned an IC50 of 28 ± 11 nM.
